This is an account of results in patent US10266609B2, “Immunomodulating beta-1,6-D-glucans” (Innate Biotherapeutics, LLC, priority 2014, dated 2019).

The assay deals with Anti-β-1,6-Glucan IgG antibodies (affinity purified from IVIG, Baxter). Kind of assay: ELISA: binding of oligosaccharides to anti-β-1,6-glucan antibodies. Note: key: a plus (+) sign indicates that the glucan was active in the assay; a minus (−) sign indicates that the glucan was not active; the '+/−' symbol indicates inconclusive results. The following applies: plate coated with oligosaccharide in PBS; 40 ug/mL anti-Beta 1,6 Glucan IgG; anti-human IgG-HRP, TMB, absorbance at 620 nm. The procedure: Binding of oligosaccharides to anti-β-1,6-glucan antibodies is performed as described in the following protocol.
• 1. […] Anti-β-1,6-Glucan IgG antibodies (affinity purified from IVIG, Baxter) • 6. […] PBS-Tween buffer (PH 7.2, 0.05% Tween 20, Kpl cat #51-12-01) II. Method: Detection of Anti-Beta Glucan IgG by ELISA • 1. Coat plate with oligosaccharides in PBS overnight at 4° C. • 2. Wash 3 times with 250 uL of PBS-Tween • 3. Empty plate • 4. Block plate with 200 uL of Casein for 1 hour at room temperature • 5. Empty plate • 6. Add 40 ug/mL anti-Beta 1,6 Glucan IgG (4 ug/well) in Casein • 7. Incubate for 45 min at room temperature • 8. Wash 3 times with 250 uL of PBS-Tween • 9. Empty plate • 10. Add detection antibody: anti-human IgG-HRP at 1:5000—in casein. Incubate for 45 min at room temperature in the dark • 11. Wash 5 times with 250 uL of PBS-Tween • 12. Empty plate • 13. Add 100 uL of one step ultra TMB • 14. Measure the absorbance at 620 nm every 1 min for 60 min Tables 1-3 provide ELISA assay data for certain glucan compounds.
Consider `COC1O[C@H](CO[C@@H]2O[C@H](CO[C@@H]3O[C@H](CO[C@@H]4O[C@H](CO[C@@H]5O[C@H](CO[C@@H]6O[C@H](CO[C@@H]7O[C@H](CO[C@@H]8O[C@H](CO[C@@H]9O[C@H](CO[C@@H]%10O[C@H](CO[C@@H]%11O[C@H](CO)[C@@H](O)[C@H](O)[C@H]%11O)[C@@H](O)[C@H](O)[C@H]%10O)[C@@H](O)[C@H](O)[C@H]9O)[C@@H](O)[C@H](O)[C@H]8O)[C@@H](O)[C@H](O)[C@H]7O)[C@@H](O)[C@H](O)[C@H]6O)[C@@H](O)[C@H](O)[C@H]5O)[C@@H](O)[C@H](O)[C@H]4O)[C@@H](O)[C@H](O)[C@H]3O)[C@@H](O)[C@H](O)[C@H]2O)[C@@H](O)[C@H](O)[C@H]1O` (stereo partly drawn) [OCH3, n=11, methyl [O-β-D-glucopyranosyl-1,6]10-D-glucopyranoside], for which the “ELISA assay data: glucan active in detection of anti-beta glucan IgG” value (“ELISA assay data: glucan active” for short) is given as “+”.

`OC[C@H]1O[C@@H](OC[C@H]2O[C@@H](OC[C@H]3O[C@@H](OC[C@H]4O[C@@H](OC[C@H]5O[C@@H](OC[C@H]6O[C@@H](OC[C@H]7O[C@@H](OC[C@H]8O[C@@H](OC[C@H]9O[C@@H](OC[C@H]%10O[C@@H](OC[C@H]%11O[C@@H](OC[C@H]%12OC(O)[C@H](O)[C@@H](O)[C@@H]%12O)[C@H](O)[C@@H](O)[C@@H]%11O)[C@H](O)[C@@H](O)[C@@H]%10O)[C@H](O)[C@@H](O)[C@@H]9O)[C@H](O)[C@@H](O)[C@@H]8O)[C@H](O)[C@@H](O)[C@@H]7O)[C@H](O)[C@@H](O)[C@@H]6O)[C@H](O)[C@@H](O)[C@@H]5O)[C@H](O)[C@@H](O)[C@@H]4O)[C@H](O)[C@@H](O)[C@@H]3O)[C@H](O)[C@@H](O)[C@@H]2O)[C@H](O)[C@@H](O)[C@@H]1O` (stereo partly drawn) [OH, n=12, [O-β-D-glucopyranosyl-1,6-]11-D-glucose]: the “ELISA assay data: glucan active” value was “+”.

Regarding `OC[C@H]1O[C@@H](OC[C@H]2O[C@@H](OC[C@H]3O[C@@H](OC[C@H]4O[C@@H](OC[C@H]5O[C@@H](OC[C@H]6O[C@@H](OC[C@H]7O[C@@H](OC[C@H]8O[C@@H](OC[C@H]9O[C@@H](OC[C@H]%10O[C@@H](OC[C@H]%11OC(O)[C@H](O)[C@@H](O)[C@@H]%11O)[C@H](O)[C@@H](O)[C@@H]%10O)[C@H](O)[C@@H](O)[C@@H]9O)[C@H](O)[C@@H](O)[C@@H]8O)[C@H](O)[C@@H](O)[C@@H]7O)[C@H](O)[C@@H](O)[C@@H]6O)[C@H](O)[C@@H](O)[C@@H]5O)[C@H](O)[C@@H](O)[C@@H]4O)[C@H](O)[C@@H](O)[C@@H]3O)[C@H](O)[C@@H](O)[C@@H]2O)[C@H](O)[C@@H](O)[C@@H]1O` (stereo partly drawn) [OH, n=11, [O-β-D-glucopyranosyl-1,6]10-D-glucose], the “ELISA assay data: glucan active” value was “+”.

For `COC1O[C@H](CO[C@@H]2O[C@H](CO[C@@H]3O[C@H](CO[C@@H]4O[C@H](CO[C@@H]5O[C@H](CO)[C@@H](O)[C@H](O)[C@H]5O)[C@@H](O)[C@H](O)[C@H]4O)[C@@H](O)[C@H](O)[C@H]3O)[C@@H](O)[C@H](O)[C@H]2O)[C@@H](O)[C@H](O)[C@H]1O` (stereo partly drawn) [OCH3, n=5, methyl [O-β-D-glucopyranosyl-1,6-]4-D-glucopyranoside], the “ELISA assay data: glucan active” value is recorded as “+”.

For “[O-β-D-glucopyranosyl-1,6-]5-D-glucose [OH, n=6]”, the “ELISA assay data: glucan active” value is recorded as “+”.

In the case of `COC1O[C@H](CO[C@@H]2O[C@H](CO[C@@H]3O[C@H](CO[C@@H]4O[C@H](CO[C@@H]5O[C@H](CO[C@@H]6O[C@H](CO[C@@H]7O[C@H](CO[C@@H]8O[C@H](CO[C@@H]9O[C@H](CO)[C@@H](O)[C@H](O)[C@H]9O)[C@@H](O)[C@H](O)[C@H]8O)[C@@H](O)[C@H](O)[C@H]7O)[C@@H](O)[C@H](O)[C@H]6O)[C@@H](O)[C@H](O)[C@H]5O)[C@@H](O)[C@H](O)[C@H]4O)[C@@H](O)[C@H](O)[C@H]3O)[C@@H](O)[C@H](O)[C@H]2O)[C@@H](O)[C@H](O)[C@H]1O` (stereo partly drawn) [OCH3, n=9, methyl [O-β-D-glucopyranosyl-1,6]8-D-glucopyranoside], the “ELISA assay data: glucan active” value was “+”.

As for `[N-]=[N+]=NCCOC1OC(COC2OC(COC3OC(COC4OC(COC5OC(COC6OC(COC7OC(CO)C(O)C(O)C7O)C(O)C(O)C6O)C(O)C(O)C5O)C(O)C(O)C4O)C(O)C(O)C3O)C(O)C(O)C2O)C(O)C(O)C1O` (stereo not drawn) [α-O(CH2)2N3, n=7], the “ELISA assay data: glucan active” value is “+”.

With `OCC1OC(OCC2OC(OCC3OC(OCC4OC(OCC5OC(OCC6OC(OCC7OC(OCC8OC(O)C(O)C(O)C8O)C(O)C(O)C7O)C(O)C(O)C6O)C(O)C(O)C5O)C(O)C(O)C4O)C(O)C(O)C3O)C(O)C(O)C2O)C(O)C(O)C1O` (stereo not drawn) [OH, n=8], the “ELISA assay data: glucan active” value is “+”.

Regarding `[N-]=[N+]=NCCOC1OC(COC2OC(COC3OC(COC4OC(COC5OC(COC6OC(COC7OC(COC8OC(COC9OC(CO)C(O)C(O)C9O)C(O)C(O)C8O)C(O)C(O)C7O)C(O)C(O)C6O)C(O)C(O)C5O)C(O)C(O)C4O)C(O)C(O)C3O)C(O)C(O)C2O)C(O)C(O)C1O` (stereo not drawn) [α-O(CH2)2N3, n=9], the “ELISA assay data: glucan active” value is recorded as “+”.

Regarding “N-[6-[(O-(β-D-glucopyranosyl-(1,6))4-β-D-glucopyranosyl](2RS,3R,4R,5R)-2,3,4,5-tetrahydroxyhexyl]-4-piperidylacetic acid [4-piperidine(CH2)CO2H, n=5]”, the “ELISA assay data: glucan active” value is “+”.

On to `[N-]=[N+]=NCCOC1OC(COC2OC(COC3OC(CO)C(O)C(O)C3O)C(O)C(O)C2O)C(O)C(O)C1O` (stereo not drawn) [α-O(CH2)2N3, n=3], for which the “ELISA assay data: glucan active” value is “+”.

Regarding `COC1O[C@H](CO[C@@H]2O[C@H](CO[C@@H]3O[C@H](CO[C@@H]4O[C@H](CO[C@@H]5O[C@H](CO[C@@H]6O[C@H](CO[C@@H]7O[C@H](CO[C@@H]8O[C@H](CO)[C@@H](O)[C@H](O)[C@H]8O)[C@@H](O)[C@H](O)[C@H]7O)[C@@H](O)[C@H](O)[C@H]6O)[C@@H](O)[C@H](O)[C@H]5O)[C@@H](O)[C@H](O)[C@H]4O)[C@@H](O)[C@H](O)[C@H]3O)[C@@H](O)[C@H](O)[C@H]2O)[C@@H](O)[C@H](O)[C@H]1O` (stereo partly drawn) [OCH3, n=8, methyl [O-β-D-glucopyranosyl-1,6]7-D-glucopyranoside], the “ELISA assay data: glucan active” value was “+”.

As to `OCC1OC(OCC2OC(OCC3OC(OCC4OC(O)C(O)C(O)C4O)C(O)C(O)C3O)C(O)C(O)C2O)C(O)C(O)C1O` (stereo not drawn) [OH, n=4], the “ELISA assay data: glucan active” value is given as “+”.

In the case of `[N-]=[N+]=NCCOC1OC(COC2OC(COC3OC(COC4OC(COC5OC(CO)C(O)C(O)C5O)C(O)C(O)C4O)C(O)C(O)C3O)C(O)C(O)C2O)C(O)C(O)C1O` (stereo not drawn) [α-O(CH2)2N3, n=5], the “ELISA assay data: glucan active” value is listed as “+”.

With `OC[C@H]1O[C@@H](OC[C@H]2O[C@@H](OC[C@H]3O[C@@H](OC[C@H]4O[C@@H](OC[C@H]5O[C@@H](OC[C@H]6O[C@@H](OC[C@H]7O[C@@H](OC[C@H]8O[C@H](OCCCl)[C@H](O)[C@@H](O)[C@@H]8O)[C@H](O)[C@@H](O)[C@@H]7O)[C@H](O)[C@@H](O)[C@@H]6O)[C@H](O)[C@@H](O)[C@@H]5O)[C@H](O)[C@@H](O)[C@@H]4O)[C@H](O)[C@@H](O)[C@@H]3O)[C@H](O)[C@@H](O)[C@@H]2O)[C@H](O)[C@@H](O)[C@@H]1O` [α-O(CH2)2Cl, n=8, 2-chloroethyl [O-β-D-glucopyranosyl-1,6]7-D-glucopyranoside], the “ELISA assay data: glucan active” value is “+”.
